PMC6877352, “Modifying the Siderophore Triacetylfusarinine C for Molecular Imaging of Fungal Infection” (Molecular imaging and biology, 2019)

Legend:
[1] = tested on: A. fumigatus wildtype (ATCC46645); experiment: In vitro uptake assay in A. fumigatus; assay type: cell-based, Aspergillus fumigatus; conditions: iron-starvation condition, 45 min, normalized to [^68Ga]TAFC uptake from the same experiment, n = 3
Protocol: For in vitro uptake studies, A. fumigatus wildtype (ATCC46645) was used. Fungal strain was cultured at 37 °C in Aspergillus minimal medium (AMM) containing 1 % (m/v) glucose as carbon source, 20 mM glutamine as nitrogen source, salts, and trace elements. Iron-sufficient media were prepared by adding FeSO4 to a final concentration of 30 μM. For iron-deficient conditions, supplementation of iron was omitted. Iron starvation was verified by the detection of extracellular siderophore production which is suppressed by iron supplementation.
Uptake assays were performed in either iron-deficient or iron-sufficient A. fumigatus wildtype cultures. In a 96-well MultiScreen Filter Plates HTS (1 μm glass fiber filter, Merck Millipore, Darmstadt, Germany), 180 μl of A. fumigatus suspended in iron-replete or iron-depleted medium was added. [^68Ga]siderophores (approx. 1 × 10^5 cpm, 80 nM) were incubated with either PBS pH 7.4 (total series) or blocking solution (10 μM [Fe]TAFC) (non-specific series) at RT for 45 min in quadriplicates. The incubation was interrupted by suction of the medium and the plate was washed twice with ice-cold TRIS-buffered saline (10 mM, pH 7.3). The filters were isolated and the remaining activities were measured in the gamma counter. The uptake was calculated as % uptake of total activity added; each assay was repeated three times. To normalize uptake variations between different fungal cultures, the uptake of each [^68Ga]siderophore was expressed as the ratio to [^68Ga]TAFC uptake from the same experiment. The mean values of three different assays were used to quantitatively compare the difference in uptake between the compounds.

[2] = Distribution coefficient (logD), octanol/PBS pH 7.4; assay type: physicochemical; conditions: [^68Ga]siderophore 4 μM, octanol/PBS pH 7.4, n = 5
Protocol: [^68Ga]siderophore (4 μM) in 500 μl phosphate-buffered saline (PBS), pH 7.4, was added to 500 μl octanol. The mixture was vortexed at 1400 rpm for 15 min and subsequently centrifuged at 2000 rcf for 2 min.

CCCC(=O)NC1CCCN(O)C(=O)C=C(C)CCOC(=O)C(NC(=O)CCC)CCCN(O)C(=O)C=C(C)CCOC(=O)C(NC(=O)CCC)CCCN(O)C(=O)C=C(C)CCOC1=O (stereo not drawn) (68Ga complex, metal not drawn) [TBuFC, tributanoyl(FSC)]
uptake ratio to [^68Ga]TAFC [1]: 0.86 | uptake ratio to [^68Ga]TAFC ([1]; listed as [^68Ga]TBuFC): around 1 | logD [2]: 0.34 ± 0.01
